One block for each compound: values may come before it.
Key:
RORγ-LBD [1] = biological target: T1, RORγ-LBD (Homo sapiens, UniProt P51449); assay: FRET-based CoR peptide recruitment assay (dual TR-FRET); type: biochemical; details: for relative efficacy (RE) in CoR recruitment: compared with compound A
T1 construct: the glutathione-S-transferase (GST)-tagged RORγ-LBD produced in Sf9 cells; GST; made in house; host or cells: Sf9 cells
T1 sequence (P51449 269-508 limits assumed): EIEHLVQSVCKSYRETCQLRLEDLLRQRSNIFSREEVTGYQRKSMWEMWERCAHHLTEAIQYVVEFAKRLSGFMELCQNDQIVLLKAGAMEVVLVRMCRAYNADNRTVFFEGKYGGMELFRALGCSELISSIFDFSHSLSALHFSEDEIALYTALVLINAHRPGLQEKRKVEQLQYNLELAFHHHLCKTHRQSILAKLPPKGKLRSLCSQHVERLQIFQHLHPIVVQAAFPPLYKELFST
Method: Figure 1 The relative efficacy (RE) of CoR peptide recruitment to the RORγ-LBD and LUC activity by inverse agonists. […] Background activity in the absence of a standard inverse agonist is defined as 0% response; and maximum activity induced by a standard inverse agonist at 100μM as 100% response. […] A value of 100% is given to cells without inverse agonist in LUC assay. […] Detailed methods on plasmid construction, sample preparation, crystallization, structure determination, and FRET and LUC assays are provided in previous publications. […] The purified proteins were crystallized in complex with rockogenin and CoR peptide (ternary complex structures). […] The complex structures were determined by molecular replacement method using the RORγ-LBD apo structures as a search model. Diffraction data of the RORγ-LBD were collected at 21IDF (APS), Chicago, USA. Figures were generated using PyMOL[30].
(§1) For TR-FRET assays, the glutathione-S-transferase (GST)-tagged RORγ-LBD produced in Sf9 cells and peptide solution were incubated with compounds, and the 520/490 TR-FRET ratio was measured. Human RORγ LUC assays were carried out in accordance with the method of Madoux et al.[31] with some modifications and described previously. EC50 was calculated by curve-fitting in GraphPad Prism. Detailed descriptions of synthesis for the compounds are described elsewhere[9],[22].

IL-17 release = test system: IL-17 release; design: method as in PMID 26819660; details: orally administered, inflammatory model mice; cited from earlier work
RORγ-LBD [2] = biological target: T1, RORγ-LBD; assay: FRET-based CoA peptide releasing assay (dual TR-FRET); type: biochemical; details: GST-tagged RORγ-LBD, read-out: EC50 release of CoA peptide (FRET)
Method: Figure 1 The relative efficacy (RE) of CoR peptide recruitment to the RORγ-LBD and LUC activity by inverse agonists. […] Background activity in the absence of a standard inverse agonist is defined as 0% response; and maximum activity induced by a standard inverse agonist at 100μM as 100% response. […] A value of 100% is given to cells without inverse agonist in LUC assay.
Detailed methods on plasmid construction, sample preparation, crystallization, structure determination, and FRET and LUC assays are provided in previous publications. […] The purified proteins were crystallized in complex with rockogenin and CoR peptide (ternary complex structures). […] The complex structures were determined by molecular replacement method using the RORγ-LBD apo structures as a search model. Diffraction data of the RORγ-LBD were collected at 21IDF (APS), Chicago, USA. Figures were generated using PyMOL[30].
as §1

Human RORγ = biological target: T2, Human RORγ (Homo sapiens, UniProt P51449); assay: Human RORγ luciferase (LUC) reporter assay; type: cell-based; details: for LUC activity relative to compound A: fold difference of EC50 versus compound A
T2 sequence (P51449 1-518): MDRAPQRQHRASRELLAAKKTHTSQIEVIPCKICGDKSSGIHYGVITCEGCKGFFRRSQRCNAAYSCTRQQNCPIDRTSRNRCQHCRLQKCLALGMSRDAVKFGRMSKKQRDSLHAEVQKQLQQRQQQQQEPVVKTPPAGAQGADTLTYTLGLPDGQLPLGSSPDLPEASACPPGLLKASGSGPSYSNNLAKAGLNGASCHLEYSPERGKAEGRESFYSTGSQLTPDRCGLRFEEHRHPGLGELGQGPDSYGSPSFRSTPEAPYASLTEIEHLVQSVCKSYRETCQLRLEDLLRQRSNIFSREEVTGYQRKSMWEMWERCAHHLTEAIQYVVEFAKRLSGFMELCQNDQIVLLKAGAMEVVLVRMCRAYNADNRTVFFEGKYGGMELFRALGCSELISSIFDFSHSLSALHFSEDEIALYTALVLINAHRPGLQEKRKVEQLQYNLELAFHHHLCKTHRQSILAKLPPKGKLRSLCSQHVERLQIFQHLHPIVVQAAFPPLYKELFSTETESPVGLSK
Method: Figure 1 The relative efficacy (RE) of CoR peptide recruitment to the RORγ-LBD and LUC activity by inverse agonists. […] Background activity in the absence of a standard inverse agonist is defined as 0% response; and maximum activity induced by a standard inverse agonist at 100μM as 100% response. […] A value of 100% is given to cells without inverse agonist in LUC assay. […] Human RORγ LUC assays were carried out in accordance with the method of Madoux et al.[31] with some modifications and described previously. EC50 was calculated by curve-fitting in GraphPad Prism. Detailed descriptions of synthesis for the compounds are described elsewhere[9],[22].

Th17 cells = test system: Th17 cells; design: method as in earlier work; details: cited from earlier work

SMILES: C[C@@H]1CC[C@@]2(OC1)O[C@H]1C[C@H]3[C@@H]4CC[C@H]5C[C@@H](O)CC[C@]5(C)[C@H]4C[C@@H](O)[C@]3(C)[C@H]1[C@@H]2C [rockogenin]
CoR peptide-recruiting activity in dual FRET assay (RORγ-LBD [1]; result in words): not detected

SMILES: CC(=O)N1CC(C(=O)Nc2ccc(C)cc2C)C(c2nnc(C3CC(CC(C)C)C3)n2C2CC2)C1 (stereo not shown) [compound A]
IL-17 release (IL-17 release): effectively suppressed IL-17 release in a dose-dependent manner

EC50 (RORγ-LBD [2]): 500 nM
LUC activity relative to compound A (Human RORγ): nine times lower activity
LUC activity relative to compound A (Human RORγ; listed as Compound T): nine-times lower than compound A
EC50 (Human RORγ; luciferase reporter assay, means ± SE (n = 2–3)): 440 nM
EC50 (RORγ-LBD [1]; TR-FRET, GST-tagged RORγ-LBD, compound T n = 1): 250 nM
relative efficacy (RE) in CoR recruitment (RORγ-LBD [1]): about half that of compound A
relative efficacy (RE) in CoR recruitment (RORγ-LBD [1]; listed as Compound T): half the efficacy of compound A
SMILES: COc1ccc(-c2c(-c3nc(CC(=O)NCC4CCOCC4)cs3)cnn2C(C)(C)C)cc1 [compound T]
production of IL-17 (Th17 cells): inhibits the production of IL-17

Source: PMC6255837, “Ternary crystal structure of human RORγ ligand-binding-domain, an inhibitor and corepressor peptide provides a new insight into corepressor interaction” (Scientific Reports, 2018)
